# Literature values as cited in patent US20110270212A1, “PHARMACOKINETIC CONTROL FOR OPTIMIZED INTERFERON DELIVERY” (MEDTRONIC, INC., priority 2007, published 2011).
# What was measured:
# HCV [1] = settings: oral doses up to 4500 mg
# HCV [2] = settings: in vivo
# HCV [3] = settings: across all dosing arms
# [4] = system: Hepatitis C virus replication (replicon model); settings: via protease inhibition
# HCV [5] = settings: ribavirin combined with interferon-α, genotype 1 population
# [6] = subcutaneously
molecule,measurement,setting,value
"[N-]=[N+]=N[C@]1(CO)O[C@@H](n2ccc(N)nc2=O)[C@H](O)[C@@H]1O [R1626, 4′-azidocytidine]",tolerability,HCV [1],generally well-tolerated with increasing adverse events at the highest dose
same,response with pegylated interferon/ribavirin,HCV [2],good response
CC(C)C(=O)OC[C@H]1O[C@@H](n2ccc(N)nc2=O)[C@](C)(F)[C@@H]1OC(=O)C(C)C [R71278],antiviral activity,HCV [3],dose-dependent antiviral activity
COc1ccc2c(O[C@@H]3C[C@H]4C(=O)N[C@]5(C(=O)NS(=O)(=O)C6CC6)C[C@H]5/C=C\CCCCN(C)C(=O)[C@@H]4C3)cc(-c3nc(C(C)C)cs3)nc2c1C [TMC435350],Hepatitis C virus replication in replicon experiments,[4],reduce the amount of Hepatitis C virus replication
"NC(=O)c1ncn([C@@H]2O[C@H](CO)[C@@H](O)[C@H]2O)n1 [ribavirin, 1-β-D-ribofuranosyl-1H-1,2,4-triazole-3-carboxamide]",therapeutic effectiveness of the combination,HCV [5],29%
interferon-α,dose administered without adverse reactions,[6],up to 300 million IU/m^2
